Laboratory results as given in patent US7449292B2, “Methods for predicting relative efficacy of a beta blocker therapy based on a B1-adrenergic receptor polymorphism” (University of Cincinnati, priority 2003, dated 2008).

Tested on: cardiac β1-AR (position 389 genotype)
Assay type: in vivo, human
Details: Gly389/Arg389 heterozygous heart failure patients; difference before vs after >6 months on a stable dose
Procedure: The study was approved by the University of Cincinnati Institutional Review Board and the patients gave informed consent. […] LVEF was determined by radionuclide ventriculography before initiation of drug treatment and after a maintenance period of >6 months on a stable dose. The change in LVEF was reported as the difference between values before and after drug treatment.

## COc1ccccc1OCCNCC(O)COc1cccc2[nH]c3ccccc3c12 (stereo not shown) [carvedilol]
  improvement in LVEF: improvement similar to that of Arg389-homozygous patients
